Test results published in patent publication US20120004281A1, “RNA Interference Mediated Inhibition of the Nerve Growth Factor Beta Chain (NGFB) Gene Expression Using Short Interfering Nucleic Acid (siNA)” (Merck Sharp & Dohme Corp, priority 2009, published 2012).
[invAb] = inverted abasic unit; m = 2'-O-methyl; r = 2'-OH (RNA); f = 2'-fluoro

What follows are substances tested on NGFβ mRNA (assay: NGFβ mRNA knock-down in Calu-1 cells (RNAiMax transfection, Taqman RT-PCR)). Details: human Calu-1 cells, 10 nM siNA, 24 hrs post-transfection, relative to non-targeting control, normalized to GAPDH.
Assay type: cell-based, human
Method: Calu-1 (human; ATCC cat# HTB-54): Cells were cultured at 37° C. in the presence of 5% CO2 and grown in McCoy's 5a medium supplemented with fetal bovine serum at a final concentration of 10% and 100 μg/mL of streptomycin and 100 U/mL penicillin.
All transfections were performed using RNAiMax (Invitrogen Cat# 13778-150) as per the manufacturer's instructions.
Cells were plated in all wells of a tissue-culture treated, 96-well plate at a final count of 5,000 cells/well in […], of appropriate culture media. Cells were cultured for 24 hours after plating at 37° C. in the presence of 5% CO2.
After 24 hours, complexes containing siNA and RNAiMax were created as follows: A solution of RNAiMax diluted 33-fold in OPTI-MEM was prepared. In parallel, solutions of the siNAs for testing were prepared to a final concentration of 120 nM in OPTI-MEM. After incubation of RNAiMax/OPTI-MEM solution at room temperature for 5 min, an equal volume of the siRNA solution and the RNAiMax solution were added together for each of the siNAs.
This solution was incubated at room temperature for 20 minutes. After incubation, 20 uL of the solution was added to each of the relevant wells.
The final concentration of siNA in each well was 10 nM and the final volume of RNAiMax in each well was 0.3u1.
The time of incubation with the RNAiMax-siNA complexes was 24 hours, unless otherwise indicated. There was no change in media between the transfection and harvesting of the cells unless otherwise indicated.
Dose response curves were carried out in a similar fashion in 96-well plates, while maintaining a constant amount of RNAiMax in each transfection.
RNA was extracted from a 96-well plate using the TaqMan® Gene Expression Cells-to-CT™ Kit (Cat# 4399002) with a modified protocol. Briefly, a 60 uL (1 plate) or 110 uL (2 plates) of the Lysis Solution with DNase I was dispensed into each well of the Lysis Buffer Plate (twin.tec full skirt plate). The lysis buffer and stop plates were stored at 4° C. until the cells were washed.
The plate was spun at 1100 rpm for 5 minutes. The culture medium was aspirated and discarded from the wells of the culture plate. The lysis was performed automatically using a BioMek FX instrument and method. After the Biomek method was completed, the lysis plate was incubated for 2 min. at room temperature. The lysis plate can be stored for 2 hours at 4° C., or at −20° C. or −80° C. for two months.
Each well of the reverse transcription plate required 10 uL of 2× reverse transcriptase Buffer, luL of 20× reverse transcription enzyme and 2 uL of nuclease-free water. The reverse transcription master mix was prepared by mixing 2× reverse transcription buffer, 20× reverse transcription enzyme mix, and nuclease-free water. 13 uL of the reverse transcription master mix was dispensed into each well of the reverse transcription plate (semi-skirted). A separate reverse transcription plate was prepared for each cell plate. The plate was loaded onto a Biomek NX or Biomek FX Dual-96 and the Biomek method was run. The program is programmed to automatically added 7 uL of lysate from the cell lysis procedure described above into each well of the reverse transcription plate. The plate is sealed and spun on a centrifuge (1000 rpm for 30 seconds) to settle the contents to the bottom of the reverse transcription plate. The plate is placed in a thermocycler at 37° C. for 60 min, 95° C. for 5 min, and 4° C. until the plate is removed from the thermocycler. Upon removal, if not used immediately, the plate was frozen at −20° C.
A series of probes and primers were used to detect the various mRNA transcripts of the genes of NGFβ, BDNF and GAPDH in human cell lines. All the Taqman probes and primers for the experiments here-in described were supplied as pre-validated sets by Applied Biosystems, Inc. (see Table 3). The assays were performed on an ABI 7900 instrument, according to the manufacturer's instructions. […]

Point of comparison: “25427-DC: siNA duplex, NGFβ target site 516; sense B cucAcAGGAGcAAGcGGuc TTB (SEQ ID NO: 79), antisense GACcGcuuGcuccuGuGAGUU (SEQ ID NO: 80) (sense CUCACAGGAGCAAGCGGUCTT; antisense GACCGCUUGCUCCUGUGAGUU; sense: DNA at AGT, 2'-fluoro at CU, [invAb] at 5' end, 3' end, backbone not given here; antisense: sugars from the 5' end rrrfmfffmfffffmfmmmmm, backbone not given here)”, “% KD in CaLu-1 Cells” value 6%. Against it:
- 25415-DC: siNA duplex, NGFβ target site 609; sense B ccAccGccAcAGAcAucAA TTB (SEQ ID NO: 55), antisense UUGAuGucuGuGGcGGuGGUU (SEQ ID NO: 56) (sense CCACCGCCACAGACAUCAATT; antisense UUGAUGUCUGUGGCGGUGGUU; sense: DNA at AGT, 2'-fluoro at CU, [invAb] at 5' end, 3' end, backbone not given here; antisense: sugars from the 5' end rrrmfmfffmfmmfmmfmmmm, backbone not given here) — higher, 61%
- 25418-DC: siNA duplex, NGFβ target site 650; sense B GGAGAGGuGAAcAuuAAcA TTB (SEQ ID NO: 61), antisense UGUuAAuGuucAccucuccUU (SEQ ID NO: 62) (sense GGAGAGGUGAACAUUAACATT; antisense UGUUAAUGUUCACCUCUCCUU; sense: DNA at AGT, 2'-fluoro at CU, [invAb] at 5' end, 3' end, backbone not given here; antisense: sugars from the 5' end rrrfmmfmfffmfffffffmm, backbone not given here) — higher, 26%
- 25419-DC: siNA duplex, NGFβ target site 648; sense B uGGGAGAGGuGAAcAuuAA TTB (SEQ ID NO: 63), antisense UUAAuGuucAccucucccAUU (SEQ ID NO: 64) (sense UGGGAGAGGUGAACAUUAATT; antisense UUAAUGUUCACCUCUCCCAUU; sense: DNA at AGT, 2'-fluoro at CU, [invAb] at 5' end, 3' end, backbone not given here; antisense: sugars from the 5' end rrrmfmfffmffffffffmmm, backbone not given here) — higher, 25%
- 25420-DC: siNA duplex, NGFβ target site 510; sense B AcAGGAcucAcAGGAGcAA TTB (SEQ ID NO: 65), antisense UUGcuccuGuGAGuccuGuUU (SEQ ID NO: 66) (sense ACAGGACUCACAGGAGCAATT; antisense UUGCUCCUGUGAGUCCUGUUU; sense: DNA at AGT, 2'-fluoro at CU, [invAb] at 5' end, 3' end, backbone not given here; antisense: sugars from the 5' end rrrfffffmfmmmffffmfmm, backbone not given here) — higher, 44%
- 25421-DC: siNA duplex, NGFβ target site 675; sense B uAuucAAAcAGuAcuuuuu TTB (SEQ ID NO: 67), antisense AAAAAGuAcUGuuuGAAuAUU (SEQ ID NO: 68) (sense UAUUCAAACAGUACUUUUUTT; antisense AAAAAGUACUGUUUGAAUAUU; sense: DNA at AGT, 2'-fluoro at CU, [invAb] at 5' end, 3' end, backbone not given here; antisense: sugars from the 5' end rrrmmmfmfmmfffmmmfmmm, backbone not given here) — higher, 56%
- 25423-DC: siNA duplex, NGFβ target site 519; sense B AcAGGAGcAAGcGGucAuc TTB (SEQ ID NO: 71), antisense GAUGAccGcuuGcuccuGuUU (SEQ ID NO: 72) (sense ACAGGAGCAAGCGGUCAUCTT; antisense GAUGACCGCUUGCUCCUGUUU; sense: DNA at AGT, 2'-fluoro at CU, [invAb] at 5' end, 3' end, backbone not given here; antisense: sugars from the 5' end rrrmmffmfffmfffffmfmm, backbone not given here) — higher, 40%
- 25426-DC: siNA duplex, NGFβ target site 676; sense B AuucAAAcAGuAcuuuuuu TTB (SEQ ID NO: 77), antisense AAAAAAGuAcuGuuuGAAuUU (SEQ ID NO: 78) (sense AUUCAAACAGUACUUUUUUTT; antisense AAAAAAGUACUGUUUGAAUUU; sense: DNA at AGT, 2'-fluoro at CU, [invAb] at 5' end, 3' end, backbone not given here; antisense: sugars from the 5' end rrrmmmmfmffmfffmmmfmm, backbone not given here) — higher, 38%
- 25428-DC: siNA duplex, NGFβ target site 677; sense B uucAAAcAGuAcuuuuuuG TTB (SEQ ID NO: 81), antisense CAAAAAAGuAcuGuuuGAAUU (SEQ ID NO: 82) (sense UUCAAACAGUACUUUUUUGTT; antisense CAAAAAAGUACUGUUUGAAUU; sense: DNA at AGT, 2'-fluoro at CU, [invAb] at 5' end, 3' end, backbone not given here; antisense: sugars from the 5' end rrrmmmmmfmffmfffmmmmm, backbone not given here) — higher, 57%
- 25429-DC: siNA duplex, NGFβ target site 469; sense B ucAGGAucuGGAcuucGAG TTB (SEQ ID NO: 83), antisense CUCGAAGuccAGAuccuGAUU (SEQ ID NO: 84) (sense UCAGGAUCUGGACUUCGAGTT; antisense CUCGAAGUCCAGAUCCUGAUU; sense: DNA at AGT, 2'-fluoro at CU, [invAb] at 5' end, 3' end, backbone not given here; antisense: sugars from the 5' end rrrmmmmfffmmmffffmmmm, backbone not given here) — lower, 1%
